Assay results published in ChEMBL document CHEMBL3593219, “Sesquiterpenes with TRAIL-resistance overcoming activity from Xanthium strumarium” (Bioorg Med Chem, 2015).
Calls of active or inactive are those of the source. The calls are words filed in the database; no cut-off is given here.

Legend:
[1] = test system: AGS; assay: Inhibition of TRAIL-resistance in human AGS cells assessed as inhibition of cell viability at 8 uM incubated for 24 hrs in presence of 100 ng/ml TRAIL by FMCA method relative to TRAIL alone; type: functional
[2] = test system: AGS; assay: Inhibition of TRAIL-resistance in human AGS cells assessed as inhibition of cell viability at 16 uM incubated for 24 hrs in presence of 100 ng/ml TRAIL by FMCA method relative to TRAIL alone; type: functional
[3] = test system: AGS; assay: Inhibition of TRAIL-resistance in human AGS cells assessed as inhibition of cell viability at 24 uM incubated for 24 hrs in presence of 100 ng/ml TRAIL by FMCA method relative to TRAIL alone; type: functional
[4] = test system: AGS; assay: Increase in DR4 protein expression in human AGS cells incubated for 24 hrs by Western blotting method; type: functional, cell-based
[5] = test system: AGS; assay: Increase in DR5 protein expression in human AGS cells incubated for 24 hrs by Western blotting method; type: functional, cell-based
[6] = test system: AGS; assay: Increase in cleaved caspase-8 protein expression in human AGS cells incubated for 24 hrs by Western blotting method; type: functional, cell-based
[7] = test system: AGS; assay: Increase in cleaved caspase-9 protein expression in human AGS cells at 4 to 12 uM s by Western blotting method; type: functional, cell-based
[8] = test system: AGS; assay: Increase in caspase-3 protein expression in human AGS cells incubated for 24 hrs by Western blotting method; type: functional, cell-based
[9] = test system: AGS; assay: Decrease in Bcl2 protein expression in human AGS cells incubated for 24 hrs by Western blotting method; type: functional, cell-based
[10] = test system: AGS; assay: Increase in Bax protein expression in human AGS cells at incubated for 24 hrs by Western blotting method; type: functional, cell-based
[11] = test system: AGS; assay: Increase in p53 protein expression in human AGS cells incubated for 24 hrs by Western blotting method; type: functional, cell-based
[12] = test system: AGS; assay: Increase in CHOP protein expression in human AGS cells incubated for 24 hrs by Western blotting method; type: functional, cell-based
[13] = test system: AGS; assay: Increase in cleaved caspase-8 protein expression in human AGS cells at 16 uM incubated for 24 hrs in presence of 100 ng/ml TRAIL by Western blotting method; type: functional
[14] = test system: AGS; assay: Increase in cleaved caspase-8 protein expression in human AGS cells at 16 uM incubated for 24 hrs by Western blotting method; type: functional
[15] = test system: AGS; assay: Increase in cleaved caspase-8 protein expression in human AGS cells at 16 uM incubated for 24 hrs in presence of 100 ng/ml TRAIL by Western blotting method relative to TRAIL alone; type: functional
[16] = test system: AGS; assay: Increase in cleaved caspase-9 protein expression in human AGS cells at 16 uM incubated for 24 hrs in presence of 100 ng/ml TRAIL by Western blotting method; type: functional
[17] = test system: AGS; assay: Increase in cleaved caspase-9 protein expression in human AGS cells at 16 uM incubated for 24 hrs by Western blotting method; type: functional
[18] = test system: AGS; assay: Increase in cleaved caspase-9 protein expression in human AGS cells at 16 uM incubated for 24 hrs in presence of 100 ng/ml TRAIL by Western blotting method relative to TRAIL alone; type: functional
[19] = test system: AGS; assay: Increase in cleaved caspase-3 protein expression in human AGS cells at 16 uM incubated for 24 hrs in presence of 100 ng/ml TRAIL by Western blotting method; type: functional
[20] = test system: AGS; assay: Increase in cleaved caspase-3 protein expression in human AGS cells at 16 uM incubated for 24 hrs by Western blotting method; type: functional
[21] = test system: AGS; assay: Increase in cleaved caspase-3 protein expression in human AGS cells at 16 uM incubated for 24 hrs in presence of 100 ng/ml TRAIL by Western blotting method relative to TRAIL alone; type: functional
[22] = test system: AGS; assay: Increase in cleaved caspase-8 protein expression in human AGS cells at 8 uM incubated for 24 hrs in presence of 100 ng/ml TRAIL by Western blotting method relative to TRAIL alone; type: functional
[23] = test system: AGS; assay: Increase in cleaved caspase-8 protein expression in human AGS cells at 8 uM incubated for 24 hrs in presence of 100 ng/ml TRAIL by Western blotting method; type: functional
[24] = test system: AGS; assay: Increase in caspase-3 protein expression in human AGS cells at 8 uM incubated for 24 hrs in presence of 100 ng/ml TRAIL by Western blotting method; type: functional
[25] = test system: AGS; assay: Inhibition of TRAIL-resistance in human AGS cells assessed as inhibition of cell viability at 4 uM incubated for 24 hrs in presence of 100 ng/ml TRAIL by FMCA method relative to TRAIL alone; type: functional
[26] = test system: AGS; assay: Inhibition of TRAIL-resistance in human AGS cells assessed as inhibition of cell viability at 12 uM incubated for 24 hrs in presence of 100 ng/ml TRAIL by FMCA method relative to TRAIL alone; type: functional
[27] = test system: HeLa; assay: Inhibition of TRAIL-resistance in human HeLa cells assessed as inhibition of cell viability at 4 to 12 uM incubated for 24 hrs in presence of 100 ng/ml TRAIL by FMCA method relative to TRAIL alone; type: functional, cell-based
[28] = test system: DLD-1; assay: Inhibition of TRAIL-resistance in human DLD1 cells assessed as inhibition of cell viability at 4 to 12 uM incubated for 24 hrs in presence of 100 ng/ml TRAIL by FMCA method relative to TRAIL alone; type: functional, cell-based
[29] = test system: DU-145; assay: Inhibition of TRAIL-resistance in human DU145 cells assessed as inhibition of cell viability at 4 to 12 uM incubated for 24 hrs in presence of 100 ng/ml TRAIL by FMCA method relative to TRAIL alone; type: functional, cell-based
[30] = test system: MCF7; assay: Inhibition of TRAIL-resistance in human MCF7 cells assessed as inhibition of cell viability at 4 to 12 uM incubated for 24 hrs in presence of 100 ng/ml TRAIL by FMCA method relative to TRAIL alone; type: functional, cell-based
[31] = test system: HEK293; assay: Inhibition of TRAIL-resistance in HEK293 cells assessed as inhibition of cell viability at 4 to 8 uM incubated for 24 hrs in presence of 100 ng/ml TRAIL by FMCA method relative to TRAIL alone; type: cell-based; conditions: human, hek293, 24 h
[32] = test system: AGS; assay: Increase in cleaved caspase-8 protein expression in human AGS cells at 8 uM incubated for 24 hrs by Western blotting method; type: functional
[33] = test system: AGS; assay: Increase in cleaved caspase-9 protein expression in human AGS cells at 8 uM incubated for 24 hrs in presence of 100 ng/ml TRAIL by Western blotting method; type: functional
[34] = test system: AGS; assay: Increase in cleaved caspase-9 protein expression in human AGS cells at 8 uM incubated for 24 hrs by Western blotting method; type: functional
[35] = test system: AGS; assay: Increase in cleaved caspase-9 protein expression in human AGS cells at 8 uM incubated for 24 hrs in presence of 100 ng/ml TRAIL by Western blotting method relative to TRAIL alone; type: functional
[36] = test system: AGS; assay: Increase in caspase-3 protein expression in human AGS cells at 8 uM incubated for 24 hrs by Western blotting method; type: functional
[37] = test system: AGS; assay: Increase in caspase-3 protein expression in human AGS cells at 8 uM incubated for 24 hrs in presence of 100 ng/ml TRAIL by Western blotting method relative to TRAIL alone; type: functional
[38] = test system: AGS; assay: Increase in DR4 protein expression in human AGS cells at 8 uM incubated for 3 to 12 hrs by Western blotting method; type: functional, cell-based; conditions: TDE = time-dependent effect
[39] = test system: AGS; assay: Increase in DR5 protein expression in human AGS cells at 8 uM incubated for 3 to 12 hrs by Western blotting method; type: functional, cell-based; conditions: TDE = time-dependent effect
[40] = test system: AGS; assay: Inhibition of TRAIL-resistance in human AGS cells assessed as inhibition of cell viability at 10 uM incubated for 24 hrs in presence of 100 ng/ml TRAIL by FMCA method relative to TRAIL alone; type: functional
[41] = test system: AGS; assay: Inhibition of TRAIL-resistance in human AGS cells assessed as inhibition of cell viability at 20 uM incubated for 24 hrs in presence of 100 ng/ml TRAIL by FMCA method relative to TRAIL alone; type: functional
[42] = test system: AGS; assay: Inhibition of TRAIL-resistance in human AGS cells assessed as inhibition of cell viability at 30 uM incubated for 24 hrs in presence of 100 ng/ml TRAIL by FMCA method relative to TRAIL alone; type: functional

`COc1ccc(C(=O)O[C@@H]2C=C(C)CC[C@@]3(O)[C@@H](C(C)C)CC[C@]23C)cc1` was tested, and the “inhibition (INH)” value [1] was 15%, the “inhibition (INH)” value [2] was 61% and the “inhibition (INH)” value [3] was 56%. For the same compound, the Activity [4] was “Dose-dependent effect”, the Activity [5] was “Dose-dependent effect” and the Activity [6] was “Dose-dependent effect”. For the same compound, the Activity [7] was “Dose-dependent effect”, the Activity [8] was “Dose-dependent effect” and the Activity [9] was “Dose-dependent effect”. The Activity [10] was “Dose-dependent effect”, the Activity [11] was “Dose-dependent effect” and the Activity [12] was “Dose-dependent effect”. It also gave an Activity [13] of 100%, an Activity [14] of 10% and an Activity [15] of 50%. It also gave an Activity [16] of 100%, an Activity [17] of 15% and an Activity [18] of 20%. It also gave an Activity [19] of 100%, an Activity [20] of 5% and an Activity [21] of 70%.
Compound `C=C1C(=O)O[C@H]2C[C@H](C)C(CCC(C)=O)=CC[C@H]12` has an Activity [22] of 20%, an Activity [23] of 100% and an Activity [24] of 100%. The “inhibition (INH)” value [25] was 32%, the “inhibition (INH)” value [1] was 44% and the “inhibition (INH)” value [26] was 24%. The inhibition [27] was “Active”, the inhibition [28] was “Active” and the inhibition [29] was “Active”. The inhibition [30] was “Active”, the Activity [31] was “Non-toxic” and the Activity [4] was “Dose-dependent effect”. For the same compound, the Activity [5] was “Dose-dependent effect”, the Activity [6] was “Dose-dependent effect” and the Activity [7] was “Dose-dependent effect”. For the same compound, the Activity [8] was “Dose-dependent effect”, the Activity [32] was 10% and the Activity [33] was 100%. For the same compound, the Activity [34] was 20%, the Activity [35] was 20% and the Activity [36] was 25%. The Activity [37] was 65%, the Activity [9] was “Dose-dependent effect” and the Activity [10] was “Dose-dependent effect”. The Activity [38] was “tde”, the Activity [39] was “tde” and the Activity [11] was “Dose-dependent effect”. The Activity [12] was “Dose-dependent effect”.
With `CC(O)CCC1=CC[C@H]2[C@H](C[C@@H]1C)OC(=O)[C@H]2C` (stereo partly drawn) the “inhibition (INH)” value [40] was 30%, the “inhibition (INH)” value [41] was 51% and the “inhibition (INH)” value [42] was 34%.
In the case of `CC(=O)CCC1=CC[C@H]2[C@H](C[C@@H]1C)OC(=O)[C@H]2C`, the “inhibition (INH)” value [40] is reported as 19%, the “inhibition (INH)” value [41] is reported as 61% and the “inhibition (INH)” value [42] is reported as 36%.
For `C=C1C(=O)O[C@H]2C[C@H](C)C(CCC(C)O)=CC[C@H]12` (stereo partly drawn), the “inhibition (INH)” value [1] was 23%, the “inhibition (INH)” value [2] was 48% and the “inhibition (INH)” value [3] was 35%.
